Experimental data as given in patent publication US7951814B2, “Quinazolinedione derivatives as TRPA1 modulators” (Glenmark Pharmaceuticals, S.A., priority 2008, dated 2011).
Where two headings read alike, the source gives them in different places.

What was measured:
rats = test: FCA (Freund's Complete Adjuvant)-induced inflammatory mechanical hyperalgesia; assay type: in vivo, rat; details: for maximum efficacy against FCA-induced mechanical hyperalgesia: rats
From the text: (§1) The illustrative examples of the present invention are screened for ‘in vivo’ TRPA1 based efficacy in various models of pain/hyperalgesia according to modified procedures described in (a) McNamara C R et al., PNASU (2007), 104, 13525-13530 (b) Eid S R et al., Molecular Pain, (2008), 4, 48 (c) Bennett G J and Xie Y K, Pain (1988), 33, 87-107. The screening of the compounds can also be carried out by some other methods and procedures known to persons skilled in the art.
FCA (Freund's Complete Adjuvant)-Induced Inflammatory Hyperalgesia
Freund's Complete Adjuvant (FCA), containing heat killed, dried Mycobaterium tuberculosis (1 mg/ml) emulsified in mineral oil and mannide monooleate, when injected (30 μl) into the plantar region of the paw of mice and rats induces an inflammatory hyperalgesia. Mechanical hyperalgesia (24 h after injection) was assessed by measuring hind paw withdrawal thresholds to an increasing pressure (g) stimulus, using the Randall-Sellitto analgesymeter (37215, Ugo Basile, Italy) fitted with a wedge-shaped probe.

[1] = Plasma levels after oral dosing in the rat pain models; assay type: in vivo; details: for concentration at 2 h / concentration at 4 h: Sprague-Dawley, AITC model; for concentration at 2 h: p.o.
[2] = biological target: T1, Human TRPA1 expressing CHO cells (Homo sapiens, UniProt O75762); test: 45Calcium uptake assay: inhibition of AITC induced cellular uptake of radioactive calcium; assay type: cell-based; details: AITC 30 μM, human TRPA1 CHO cells; for inhibition at 1 µM: 1.0 μM test compound, read-out: Percentage inhibition at 1.0 μM; for inhibition at 10 µM: 10.0 μM test compound, read-out: Percentage inhibition at 10.0 μM; for IC50: read-out: IC50 value (range)
T1 construct: expressed in transfected cells; host or cells: CHO cells (under G-418 selection)
Method in brief: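 CHO cells expressing human TRPA1 were preincubated 10 min with compound (0.5% DMSO final), then stimulated 3 min with 30 μM AITC plus 5 μCi/ml 45Ca2+. Lysate radioactivity gave % of maximal uninhibited response; IC50 by nonlinear regression.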

male SD rats [3] = test: Chronic Constriction Injury (CCI)-induced neuropathic pain (Bennett's model); assay type: in vivo, rat
From the text: as §1
Chronic Constriction Injury (CCI)-Induced Neuropathic Pain (Bennett's Model)
Chronic constriction injury (CCI) of sciatic nerve in rats and mice induces inflammatory mechanical hyperalgesia in this Bennet's neuropathic pain model. Rats were anesthetized using ketamine/xylazine (40/5 mg/kg, i.p.) and the left sciatic nerve was exposed at mid thigh level through a small incision. Four loose ligatures of 4-0 chromic cat gut (Ethicon-Johnson & Johnson) at 1 mm space were placed around the sciatic nerve […] of common sciatic nerve. After 6-7 days, mechanical hyperalgesia was assessed by measuring hind paw withdrawal thresholds to an increasing pressure (g) stimulus, using the Randall-Sellitto analgesymeter (Ugo Basile, Italy), fitted with a wedge-shaped probe.

male SD rats [4] = test: Formalin-induced nocifensive behaviour; assay type: in vivo, rat; details: 10 mg/kg, p.o., given 1.5 h (compound 10) or 3 h (compound 37) prior to formalin (2.5%)
From the text: as §1
Formalin-Induced Nocifensive Behaviour
Formalin also induces nocifensive behaviour (paw flinching and licking responses) in rats and mice. TRPA1-deficient mice show marked attenuation of characteristic paw flinching and licking responses as a result of intraplantar injection of formalin in a characteristic early and late phase manner. This model also serves as a selective TRPA1 based mechanistic model.
Compound 10 and compound 37 inhibited the formalin-induced nocifensive licking behaviour in both early & late phases in male SD rats.

male SD rats [5] = test: AITC-induced nocifensive behaviour in rats; assay type: in vivo, rat; details: 10 mg/kg, p.o., AITC 5%
From the text: as §1
AITC-Induced Nocifensive Behaviour in Rats
Allyl isothiocyanate (AITC), a selective activator of TRPA1 receptor channel, induces nocifensive behavior (paw flinching and licking responses) in rats. The number of flinches and licking responses were counted for 45 min following the injection of 5% AITC into the plantar region of the paw. AITC being an activator of TRPA1 receptor, this model serves as a mechanistic validation for screened molecules as selective antagonists at TRPA1 channel receptor.

[6] = rat, plasma, oral, 10 mg/kg, male SD rats

T1 sequence (O75762 whole entry): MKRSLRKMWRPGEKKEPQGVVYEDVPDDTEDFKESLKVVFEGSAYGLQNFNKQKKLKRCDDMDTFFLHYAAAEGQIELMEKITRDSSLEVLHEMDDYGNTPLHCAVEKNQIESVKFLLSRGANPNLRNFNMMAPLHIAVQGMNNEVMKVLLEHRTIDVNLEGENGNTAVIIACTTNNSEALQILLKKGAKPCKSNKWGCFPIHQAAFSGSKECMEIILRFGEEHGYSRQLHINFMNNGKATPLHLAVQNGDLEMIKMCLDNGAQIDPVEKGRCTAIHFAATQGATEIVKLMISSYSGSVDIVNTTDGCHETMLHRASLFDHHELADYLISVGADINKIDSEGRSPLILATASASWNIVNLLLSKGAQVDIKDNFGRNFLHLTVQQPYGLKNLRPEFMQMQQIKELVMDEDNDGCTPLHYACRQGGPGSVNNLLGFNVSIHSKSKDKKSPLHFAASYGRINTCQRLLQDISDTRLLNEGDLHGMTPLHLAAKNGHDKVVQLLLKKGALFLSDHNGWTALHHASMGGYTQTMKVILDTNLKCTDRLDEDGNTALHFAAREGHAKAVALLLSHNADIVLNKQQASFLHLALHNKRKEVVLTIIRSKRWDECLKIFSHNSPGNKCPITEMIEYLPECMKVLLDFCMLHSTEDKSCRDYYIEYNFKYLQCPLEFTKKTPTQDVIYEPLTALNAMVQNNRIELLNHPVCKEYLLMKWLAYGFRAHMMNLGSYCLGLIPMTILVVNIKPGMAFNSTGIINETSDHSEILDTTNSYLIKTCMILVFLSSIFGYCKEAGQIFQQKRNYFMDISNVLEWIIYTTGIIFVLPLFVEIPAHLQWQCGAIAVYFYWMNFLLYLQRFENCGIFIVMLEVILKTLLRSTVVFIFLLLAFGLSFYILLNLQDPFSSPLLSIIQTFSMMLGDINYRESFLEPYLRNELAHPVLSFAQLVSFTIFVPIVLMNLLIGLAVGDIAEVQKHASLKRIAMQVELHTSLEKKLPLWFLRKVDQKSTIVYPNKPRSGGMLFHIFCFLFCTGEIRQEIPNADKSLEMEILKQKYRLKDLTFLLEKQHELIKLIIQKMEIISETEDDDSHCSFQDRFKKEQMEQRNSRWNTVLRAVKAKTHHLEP

Row | SMILES | inhibition at 1 µM [2] [%] | inhibition at 10 µM [2] [%] | IC50 [2] [nM] | concentration at 4 h [1, 6] [ng/mL] | inhibition of the early phase nocifensive behaviour (male SD rats [4]) [%] | inhibition of the late phase nocifensive behaviour (male SD rats [4]) [%] | inhibition of AITC induced flinching (male SD rats [5]) [%] | further results
1 | Cn1c(=O)c2c(CC(=O)Nc3nc(-c4ccc(Cl)cc4)cs3)cccc2n(C)c1=O [Example 10] | 99.7 | 99.9 | 50.1 to 100 | – | 58 | 58 | – | maximum efficacy against FCA-induced mechanical hyperalgesia (rats; 10 mg/kg, p.o.): 81%; ED50 (rats; Rattus norvegicus, po, doses 1, 3, 6 and 10 mg/kg): 2.7 mg/kg; plasma levels ([1]; 10 mg/kg, CCI model, male SD rats): 5100 ng/mL; concentration at 2 h ([1]; rat, plasma, oral, 3 mg/kg, male SD rats, read-out: Plasma levels at 2 h): 2080 ng/mL; concentration at 2 h ([1]; rat, plasma, oral, 10 mg/kg, male SD rats, read-out: Plasma levels at 2 h): 7380 ng/mL; concentration at 2 h ([1]; rat, plasma, oral, 3, 5 and 10 mg/kg, male SD rats, read-out: plasma levels at 2 h post-dose (range over doses)): 2080 to 7380 ng/mL; concentration at 0.5 h ([1]; rat, plasma, oral, 10 mg/kg, FCA model, rats): 3500 ng/mL; maximum efficacy, reversal of CCI-induced hyperalgesia (male SD rats [3]; 10 mg/kg, acute and chronic administration): 75%; ED50 (male SD rats [3]; Rattus norvegicus, read-out: ED50, CCI-induced neuropathic hyperalgesia): 3.5 mg/kg
2 | Cn1c(=O)c2c(CC(=O)Nc3ccn(-c4cccc(C(F)(F)F)c4)n3)cccc2n(C)c1=O [Example 81, N1-[1-(3-Trifluoromethylphenyl)-1H-3-pyrazolyl]-2-(1,3-dimethyl-2,4-dioxo-1,2,3,4-tetrahydro-5-quinazolinyl)acetamide] | 97.1 | 99.6 | 50.1 to 100 | – | – | – | – | –
3 | Cn1c(=O)c2c(CC(=O)Nc3ccn(-c4ccc(Cl)cc4F)n3)cccc2n(C)c1=O [Example 82, N1-[1-(4-Chloro-2-Fluorophenyl)-1H-3-pyrazolyl]-2-(1,3-dimethyl-2,4-dioxo-1,2,3,4-tetrahydro-5-quinazolinyl)acetamide] | 76.7 | 90.7 | > 100 | – | – | – | – | –
4 | Cn1c(=O)c2c(CC(=O)Nc3nnc(-c4ccc(Br)cc4)s3)cccc2n(C)c1=O [Example 83, N1-[5-(4-Bromophenyl)-1,3,4-thadiazol-2-yl]-2-(1,3-dimethyl-2,4-dioxo-1,2,3,4-tetrahydro-5-quinazolinyl)acetamide] | 5.49 | 3.46 | – | – | – | – | – | –

Continued, in another order:

Row | inhibition at 1 µM [2] [%] | inhibition at 10 µM [2] [%] | IC50 [2] [nM] | concentration at 4 h [1, 6] [ng/mL] | SMILES | inhibition of the early phase nocifensive behaviour (male SD rats [4]) [%] | inhibition of the late phase nocifensive behaviour (male SD rats [4]) [%] | inhibition of AITC induced flinching (male SD rats [5]) [%] | further results
5 | 98 | 100 | < 50 | 9800 | Cn1c(=O)c2c(CC(=O)Nc3nc(-c4cccc(C(F)(F)F)c4)cs3)cccc2n(C)c1=O [Example 15, N1-[4-(3-Trifluoromethylphenyl)-1,3-thiazol-2yl]-2-(1,3-dimethyl-2,4-dioxo-1,2,3,4-tetrahydro-5-quinazolinyl)acetamide] | – | – | 59 | maximum efficacy against FCA-induced mechanical hyperalgesia (rats; 30 mg/kg (p.o.)): ~70%; concentration at 1 h ([1]; rat, plasma, oral, 30 mg/kg (p.o.), FCA model, rats): 3430 ng/mL
6 | 97.5 | 99.4 | < 50 | 6200 | Cn1c(=O)c2c(CC(=O)Nc3nc(-c4ccc(C(F)(F)F)c(F)c4)cs3)cccc2n(C)c1=O [Example 37, N1-[4-(3-Fluoro-4-trifluoromethylphenyl)-1,3-thiazol-2-yl]-2-(1,3-dimethyl-2,4-dioxo-1,2,3,4-tetrahydro-5-quinazolinyl)acetamide] | 18 | 59 | 39 | –
